Laboratory results: PubChem BioAssay AID248 (DTP/NCI, 2004)
Values joined by “and” are separate entries in the source; they are usually repeats but may differ in a detail not shown here. Equal entries are not always repeated. Toxic doses and inconclusive results are not listed. Rule as the data show it: active = T/C of 150% or more; inactive = T/C below 125%.

Test system: L1210 leukemia ip in BDF1 mice, survival T/C
Experiment: NCI In Vivo Anticancer Drug Screen. Data for tumor model L1210 Leukemia (intraperitoneal) in B6D2F1 (BDF1) mice
Settings: endpoint: mean survival time, higher = longer survival
In short: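 Mice bearing the transplanted tumor received compound or vehicle. Survival of the treated group was divided by that of the vehicle-treated control group to give the ratio.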

[1] = dose: 100.0 mg/kg/injection, schedule: Q01DX001 (ip), vehicle: saline
[2] = dose: 200.0 mg/kg/injection, schedule: Q01DX001 (ip), vehicle: saline
[3] = dose: 400.0 mg/kg/injection, schedule: Q01DX001 (ip), vehicle: saline
[4] = dose: 12.5 mg/kg/injection, schedule: Q04DX003 (ip), vehicle: saline with Tween-80
[5] = dose: 25.0 mg/kg/injection, schedule: Q04DX003 (ip), vehicle: saline with Tween-80
[6] = dose: 100.0 mg/kg/injection, schedule: Q04DX003 (ip), vehicle: saline
[7] = dose: 200.0 mg/kg/injection, schedule: Q04DX003 (ip), vehicle: saline
[8] = dose: 400.0 mg/kg/injection, schedule: Q04DX003 (ip), vehicle: saline

Measured: T/C

O=C(O)Cc1ccc(C2CCCCC2)cc1
inactive: dose: 37.5 mg/kg/injection, schedule: Q01DX Z (ip), vehicle: carboxymethylcellulose (CMC) 98 % of control | dose: 75.0 mg/kg/injection, schedule: Q01DX Z (ip), vehicle: carboxymethylcellulose (CMC) 95 % of control | dose: 150.0 mg/kg/injection, schedule: Q01DX Z (ip), vehicle: carboxymethylcellulose (CMC) 102 % of control | dose: 300.0 mg/kg/injection, schedule: Q01DX Z (ip), vehicle: carboxymethylcellulose (CMC) 102 % of control

O=C(O)CC1(c2ccccc2)OC(=O)c2ccccc21 (stereo unspecified)
inactive: dose: 50.0 mg/kg/injection, schedule: Q04DX002 (ip), vehicle: saline with Tween-80 92 % of control | dose: 100.0 mg/kg/injection, schedule: Q04DX002 (ip), vehicle: saline with Tween-80 92 % of control | dose: 200.0 mg/kg/injection, schedule: Q04DX002 (ip), vehicle: saline with Tween-80 99 % of control | dose: 400.0 mg/kg/injection, schedule: Q04DX002 (ip), vehicle: saline with Tween-80 89 % of control

CC1=C(Br)C(=O)C(Br)=C(Br)C1=O
inactive: dose: 100.0 mg/kg/injection, schedule: Q04DX003 (ip), vehicle: acetone 96 % of control

COC(=S)Nc1cccc(OC(=O)NC(C)C)c1
inactive: dose: 100.0 mg/kg/injection, schedule: Q01DX001 (ip), vehicle: saline with Tween-80 97 % of control | dose: 200.0 mg/kg/injection, schedule: Q01DX001 (ip), vehicle: saline with Tween-80 95 % of control | dose: 400.0 mg/kg/injection, schedule: Q01DX001 (ip), vehicle: saline with Tween-80 100 % of control

COC1(OC)C2(Cl)C3C(=O)C4C5C(=O)C3C1(Cl)C5(Cl)C42Cl (stereo unspecified)
inactive: [1] 105 % of control | [2] 94 % of control | [3] 89 % of control

CCCCCCCCCCCCCCCC[As](=O)(O)CCCCCCCCCCCCCCCC
inactive: dose: 50.0 mg/kg/injection, schedule: Q01DX001 (ip), vehicle: saline 97 % of control | [1] 97 % of control | [2] 89 % of control | [3] 101 % of control

O=C1C(=C(C(F)(F)F)C(F)(F)F)C2CCC1C2 (stereo unspecified)
inactive: dose: 6.25 mg/kg/injection, schedule: Q01DX009 (ip), vehicle: saline with Tween-80 93 % of control | dose: 6.25 mg/kg/injection, schedule: Q04DX003 (ip), vehicle: saline with Tween-80 114 % of control | dose: 12.5 mg/kg/injection, schedule: Q01DX009 (ip), vehicle: saline with Tween-80 93 % of control | [4] 92 % of control | [5] 96 % of control

CC1(c2ccc(C(O)c3ccccc3)s2)OCCO1 (stereo unspecified)
inactive: dose: 33.0 mg/kg/injection, schedule: Q01DX009 (ip), vehicle: carboxymethylcellulose (CMC) 103 % of control | dose: 37.5 mg/kg/injection, schedule: Q04DX003 (ip), vehicle: Klucel (hydroxypropylcellulose) (HPC) 109 % of control | dose: 50.0 mg/kg/injection, schedule: Q01DX009 (ip), vehicle: carboxymethylcellulose (CMC) 98 % of control | dose: 75.0 mg/kg/injection, schedule: Q01DX001 (ip), vehicle: carboxymethylcellulose (CMC) 109 % of control | dose: 75.0 mg/kg/injection, schedule: Q01DX009 (ip), vehicle: carboxymethylcellulose (CMC) 103 % of control | dose: 75.0 mg/kg/injection, schedule: Q04DX003 (ip), vehicle: Klucel (hydroxypropylcellulose) (HPC) 109 % of control | dose: 100.0 mg/kg/injection, schedule: Q01DX001 (ip), vehicle: Klucel (hydroxypropylcellulose) (HPC) 103 % of control | dose: 150.0 mg/kg/injection, schedule: Q01DX001 (ip), vehicle: Klucel (hydroxypropylcellulose) (HPC) 97 % of control | dose: 150.0 mg/kg/injection, schedule: Q01DX009 (ip), vehicle: carboxymethylcellulose (CMC) 113 % of control | dose: 225.0 mg/kg/injection, schedule: Q01DX001 (ip), vehicle: Klucel (hydroxypropylcellulose) (HPC) 109 % of control

CCN1C(=O)CC2CCCC1C2 (stereo unspecified)
inactive: [1] 90 % of control

CCOC(=O)C(Cc1csc2ccccc12)(NC(C)=O)C(=O)OCC
inactive: dose: 44.4 mg/kg/injection, schedule: Q01DX001 (ip), vehicle: carboxymethylcellulose (CMC) 93 % of control and 94 % of control | dose: 66.7 mg/kg/injection, schedule: Q01DX001 (ip), vehicle: carboxymethylcellulose (CMC) 93 % of control and 94 % of control | dose: 100.0 mg/kg/injection, schedule: Q01DX001 (ip), vehicle: carboxymethylcellulose (CMC) 94 % of control and 98 % of control | dose: 150.0 mg/kg/injection, schedule: Q01DX001 (ip), vehicle: carboxymethylcellulose (CMC) 101 % of control and 91 % of control

CCCCOB(CCl)OCCCC
inactive: dose: 6.25 mg/kg/injection, schedule: Q04DX003 (ip), vehicle: saline sonified 103 % of control | dose: 12.5 mg/kg/injection, schedule: Q04DX003 (ip), vehicle: saline sonified 97 % of control | dose: 25.0 mg/kg/injection, schedule: Q04DX003 (ip), vehicle: saline sonified 100 % of control

CN=C1N[N+]2=CCCCC2(C)S1 (stereo unspecified)
inactive: dose: 0.2 mg/kg/injection, schedule: Q03HX024 (ip), vehicle: saline 96 % of control | dose: 0.39 mg/kg/injection, schedule: Q03HX024 (ip), vehicle: saline 100 % of control | dose: 0.78 mg/kg/injection, schedule: Q03HX024 (ip), vehicle: saline 93 % of control | dose: 1.56 mg/kg/injection, schedule: Q03HX024 (ip), vehicle: saline 95 % of control | dose: 3.13 mg/kg/injection, schedule: Q03HX024 (ip), vehicle: saline 101 % of control

O=C1C(=O)c2ccccc2C=C1[N+](=O)[O-]
inactive: dose: 5.0 mg/kg/injection, schedule: Q01DX009 (ip), vehicle: saline 92 % of control | dose: 5.0 mg/kg/injection, schedule: Q04DX003 (ip), vehicle: saline 108 % of control | dose: 10.0 mg/kg/injection, schedule: Q01DX009 (ip), vehicle: saline 101 % of control | dose: 10.0 mg/kg/injection, schedule: Q04DX003 (ip), vehicle: saline 96 % of control | dose: 20.0 mg/kg/injection, schedule: Q01DX009 (ip), vehicle: saline 99 % of control | dose: 20.0 mg/kg/injection, schedule: Q04DX003 (ip), vehicle: saline 93 % of control

COC(OC)c1[nH]c(=S)[nH]c(=O)c1Cc1ccccc1
inactive: dose: 25.0 mg/kg/injection, schedule: Q01DX009 (ip), vehicle: saline with Tween-80 98 % of control | dose: 50.0 mg/kg/injection, schedule: Q01DX009 (ip), vehicle: saline with Tween-80 96 % of control | dose: 100.0 mg/kg/injection, schedule: Q01DX009 (ip), vehicle: saline with Tween-80 98 % of control | dose: 100.0 mg/kg/injection, schedule: Q04DX003 (ip), vehicle: saline with Tween-80 102 % of control | dose: 200.0 mg/kg/injection, schedule: Q01DX009 (ip), vehicle: saline with Tween-80 86 % of control | dose: 200.0 mg/kg/injection, schedule: Q04DX003 (ip), vehicle: saline with Tween-80 96 % of control | dose: 400.0 mg/kg/injection, schedule: Q04DX003 (ip), vehicle: saline with Tween-80 94 % of control

Cc1ccccc1OCCO
inactive: [6] 101 % of control | [7] 97 % of control | [8] 106 % of control

S=C([S-])N(Cc1ccccc1)Cc1ccccc1.S=C([S-])N(Cc1ccccc1)Cc1ccccc1.[Zn]
inactive: dose: 50.0 mg/kg/injection, schedule: Q01DX009 (ip), vehicle: saline 104 % of control | dose: 100.0 mg/kg/injection, schedule: Q01DX009 (ip), vehicle: saline 102 % of control | [6] 94 % of control | dose: 200.0 mg/kg/injection, schedule: Q01DX009 (ip), vehicle: saline 104 % of control | [7] 97 % of control | [8] 89 % of control

O=C(NCCCl)Nc1cccnc1
inactive: dose: 6.25 mg/kg/injection, schedule: Q01DX009 (ip), vehicle: saline 104 % of control | dose: 12.5 mg/kg/injection, schedule: Q01DX009 (ip), vehicle: saline 101 % of control | [4] 102 % of control | dose: 25.0 mg/kg/injection, schedule: Q01DX009 (ip), vehicle: saline 105 % of control | [5] 96 % of control

CCNc1nnnn1-c1ccccc1
inactive: [1] 97 % of control | [2] 101 % of control
